Calls of active or inactive are those of the source. The rule behind the calls is not given here.
These compounds were tested against Chaperone protein DnaK (Escherichia coli (strain K12)) (UniProt P0A6Y8) (assay: E. coli DnaK SBD ligand binding – biophysical, NMR, chaperone (AID 1033)). Conditions: Purified DnaK SBD.
Chain of Chaperone protein DnaK (Escherichia coli (strain K12)) (P0A6Y8 whole entry, looked up): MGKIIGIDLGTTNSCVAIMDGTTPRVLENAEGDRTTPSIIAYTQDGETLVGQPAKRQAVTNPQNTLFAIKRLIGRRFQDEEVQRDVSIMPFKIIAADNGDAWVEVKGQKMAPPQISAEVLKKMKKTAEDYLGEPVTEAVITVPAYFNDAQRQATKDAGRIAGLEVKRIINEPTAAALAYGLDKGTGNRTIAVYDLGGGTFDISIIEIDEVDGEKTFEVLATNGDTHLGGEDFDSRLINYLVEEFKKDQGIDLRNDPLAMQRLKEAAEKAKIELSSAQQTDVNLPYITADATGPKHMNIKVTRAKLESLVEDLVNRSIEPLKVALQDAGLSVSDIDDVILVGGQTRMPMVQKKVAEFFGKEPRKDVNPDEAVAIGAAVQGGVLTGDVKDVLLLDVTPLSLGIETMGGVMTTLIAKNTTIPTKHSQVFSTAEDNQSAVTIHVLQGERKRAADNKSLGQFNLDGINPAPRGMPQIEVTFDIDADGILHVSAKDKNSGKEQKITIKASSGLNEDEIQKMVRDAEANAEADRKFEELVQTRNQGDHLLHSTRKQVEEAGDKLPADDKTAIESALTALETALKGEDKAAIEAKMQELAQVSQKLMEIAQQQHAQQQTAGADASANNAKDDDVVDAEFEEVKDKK
`Cc1sc2nc(-c3ccco3)oc(=O)c2c1C` was tested, and the Kd was > 4 mM (inactive). `Oc1ccccc1N=Cc1cccnc1` was tested, and the Kd was > 4 mM (inactive). In the case of `Cc1cc2cc3c(C)cc(=O)oc3c(C)c2o1`, the Kd is reported as > 4 mM (inactive). In the case of `COc1cc(C)c(S(=O)(=O)N2CCN(C)CC2)cc1C`, the Kd is reported as > 4 mM (inactive). In the case of `Nc1nc2ccc(C(=O)O)cc2s1`, the Kd is reported as > 4 mM (inactive). In the case of `CCc1ccccc1NC(=O)c1ccoc1C`, the Kd is reported as > 4 mM (inactive). For `C[C@@H]1O[C@@H](O[C@H]2CC[C@]3(C=O)C4CC[C@]5(C)[C@@H](C6=CC(=O)OC6)CC[C@]5(O)C4CC[C@]3(O)C2)[C@H](O)[C@H](O)[C@H]1O` (some centres undefined), the Kd was > 4 mM (inactive). For `COc1ccccc1-c1nc(=S)[nH][nH]1`, the Kd was > 4 mM (inactive). In the case of `O=C1CCC(=O)N1c1ccc(O)cc1`, the Kd is reported as > 4 mM (inactive). With `Cc1cc(C)n(S(=O)(=O)c2ccc(C(C)(C)C)cc2)n1` the Kd was > 4 mM (inactive). With `CC1=CC2C(C(C)C)CCC(C)(O)C2CC1` (centres undefined) the Kd was > 4 mM (inactive). In the case of `COc1cc([C@@H]2c3cc4c(c(O)c3C[C@H]3COC(=O)[C@@H]32)OCO4)cc(OC)c1OC`, the Kd is reported as > 4 mM (inactive). For `O=C(O)CCS(=O)(=O)c1ccccc1`, the Kd was > 4 mM (inactive). In the case of `CNC(=S)Nc1ncn(Cc2cccc(F)c2)n1`, the Kd is reported as > 4 mM (inactive). `O=C1C2CC=CCC2C(=O)N1c1ccccc1O` (centres undefined) was tested, and the Kd was > 4 mM (inactive). With `CC12CCC(O)CC1CCC1C2[C@H](O)CC2(C)C(C3=CC(=O)OC3)CCC12O` (some centres undefined) the Kd was > 4 mM (inactive). `CN(C)c1oc(-c2ccccc2Cl)nc1C#N` was tested, and the Kd was > 4 mM (inactive). For `O=C(NC12CC3CC(CC(C3)C1)C2)c1cnccn1`, the Kd was > 4 mM (inactive). `c1cnc(N2CCNCC2)nc1` was tested, and the Kd was > 4 mM (inactive). For `Nc1ccccc1-c1nc2ccccc2[nH]1`, the Kd was > 4 mM (inactive). `OCn1nnn(-c2ccccc2)c1=S` was tested, and the Kd was > 4 mM (inactive). In the case of `Cn1c(CN)nc2ccccc21`, the Kd is reported as > 4 mM (inactive). With `Cc1csc2nc3ccccc3c(=O)n12` the Kd was > 4 mM (inactive). For `O=c1sc2ccccc2n1CN1CCOCC1`, the Kd was > 4 mM (inactive). For `Cc1nn(C)c(C)c1NC(=S)NC1CCCC1`, the Kd was > 4 mM (inactive). In the case of `CC(C)Oc1ccc(NC(N)=O)cc1`, the Kd is reported as > 4 mM (inactive). For `CCOC(=O)C(C)c1n[nH]c(=O)c2ccccc12` (centres undefined), the Kd was > 4 mM (inactive). For `COCC(=O)/C=C1\Sc2ccccc2N1C`, the Kd was > 4 mM (inactive). For `C[C@]12C=CC(=O)C=C1CCC1C2CC[C@]2(C)C(=O)CCC12` (some centres undefined), the Kd was > 4 mM (inactive). With `CC(O)c1nc2ccccc2[nH]1` (centres undefined) the Kd was > 4 mM (inactive). For `CC(C)(C)C(=O)Nc1ncc(C(F)(F)F)cc1Cl`, the Kd was > 4 mM (inactive). For `O=C(O)C1CC(=O)N(Cc2ccc(F)cc2)C1` (centres undefined), the Kd was > 4 mM (inactive). In the case of `O=C(O)c1ccccc1N1CCOCC1`, the Kd is reported as > 4 mM (inactive). In the case of `Cc1nc(-c2cccc(N)c2)cs1`, the Kd is reported as > 4 mM (inactive). `CN1CCN(C(=S)NC(=O)c2ccn(C)n2)CC1` was tested, and the Kd was > 4 mM (inactive). In the case of `O=C(O)c1ccc2snnc2c1`, the Kd is reported as > 4 mM (inactive). For `N#Cc1nc(N2CCCCC2)nc(N2CCOCC2)n1`, the Kd was > 4 mM (inactive). With `CC12CN3CC(C)(CN(C1)C3c1cccs1)C2O` (centres undefined) the Kd was > 4 mM (inactive). With `COC(=O)c1c(C)c2c(c(C)c1O)OC(=O)c1c(C)c(Cl)c(O)c(Cl)c1O2` the Kd was > 4 mM (inactive). In the case of `CC(=O)Nc1ccc2c(c1)n(C)c(=O)n2C`, the Kd is reported as > 4 mM (inactive). In the case of `CC(=O)c1ccc2c(c1)OCCO2`, the Kd is reported as > 4 mM (inactive). In the case of `CCOc1ccc2nc(NS(C)(=O)=O)sc2c1`, the Kd is reported as > 4 mM (inactive). For `CC(=O)Nc1ccccc1-c1ccccc1NC(C)=O`, the Kd was > 4 mM (inactive). With `Cc1cc(C)n2c(SCc3c(C)noc3C)nnc2n1` the Kd was > 4 mM (inactive). `O=C1CS/C(=N/N=C/c2cccs2)N1` was tested, and the Kd was > 4 mM (inactive). In the case of `COc1ccc(NC(=O)C2CC(=O)N=C(N)S2)cc1` (centres undefined), the Kd is reported as > 4 mM (inactive). In the case of `Cc1cc(C(=O)N2CCN(c3ncccn3)CC2)cs1`, the Kd is reported as > 4 mM (inactive). In the case of `CC(C)=CCc1c2c(c3occ(-c4ccc(O)cc4)c(=O)c3c1O)C=CC(C)(C)O2`, the Kd is reported as > 4 mM (inactive). `O=C1C=C(O)c2ccccc2C1=O` was tested, and the Kd was > 4 mM (inactive). For `O=Cc1c(N2CCOCC2)nc2ccccn2c1=O`, the Kd was > 4 mM (inactive). With `CN1CCN(CC(=O)N2CCc3ccccc32)CC1` the Kd was > 4 mM (inactive). In the case of `Cc1nc(-c2ccccc2)sc1CN`, the Kd is reported as > 4 mM (inactive). For `Cc1cc(C)nc(N(C#N)Cc2ccccc2)n1`, the Kd was > 4 mM (inactive). For `CC1=NN2C(=N)/C(=C\c3cccs3)C(=O)N=C2S1`, the Kd was > 4 mM (inactive). `CNC(=O)c1c(O)c2ccccc2[nH]c1=O` was tested, and the Kd was > 4 mM (inactive). `CN1CCN(C(=O)c2ccccc2C(=O)O)CC1` was tested, and the Kd was > 4 mM (inactive). `CC(=O)OC1CCC2(C)C3CC(=O)C4(C)C(CC5OC6(CCC(C)CO6)[C@@H](C)C54)C3CC[C@H]2C1` (some centres undefined) was tested, and the Kd was > 4 mM (inactive). With `CC(=O)NC(=S)Nc1ccc(C(C)=O)cc1` the Kd was > 4 mM (inactive). In the case of `Cc1cc(C(=O)NC(C)c2ccncc2)cs1` (centres undefined), the Kd is reported as > 4 mM (inactive). In the case of `Cn1c(=O)[nH]c2nc[nH]c2c1=O`, the Kd is reported as > 4 mM (inactive). With `COC(=O)CCSCC(=O)Nc1nnc(C)s1` the Kd was > 4 mM (inactive). In the case of `Nc1ccc(S(=O)(=O)Nc2nccs2)cc1`, the Kd is reported as > 4 mM (inactive). With `COc1ccccc1NC(=O)c1snnc1C` the Kd was > 4 mM (inactive). For `Nc1scc[n+]1CC(=O)[O-]`, the Kd was > 4 mM (inactive). `C=C[C@@](C)(O)CCC1C(=C)C[C@H](OC(C)=O)C2C(C)(C)CCCC12C` (some centres undefined) was tested, and the Kd was > 4 mM (inactive). With `CCOC(=O)Cn1cnc2c1c(=O)[nH]c(=O)n2C` the Kd was > 4 mM (inactive). With `CC(=O)c1csc(-c2cc(C)on2)n1` the Kd was > 4 mM (inactive). `O=C(Nc1cccnc1)c1cnn2cccnc12` was tested, and the Kd was > 4 mM (inactive). In the case of `CCCc1nc2ccccc2c2nc(N)nn12`, the Kd is reported as > 4 mM (inactive). In the case of `CCCS(=O)(=O)N1CCN(c2ccccn2)CC1`, the Kd is reported as > 4 mM (inactive). In the case of `COc1cc(S(=O)(=O)Nc2cccnc2)ccc1F`, the Kd is reported as > 4 mM (inactive). `CSc1nn(-c2ccccc2)c(N)c1C#N` was tested, and the Kd was > 4 mM (inactive). With `Cc1noc(C)c1C(=O)N1CCN(c2ncccn2)CC1` the Kd was > 4 mM (inactive). With `CCCCCCCCCCCC[C@H](C(=O)O)[C@@H](C)C(=O)O` the Kd was > 4 mM (inactive). For `CC12CN([N+](=O)[O-])C3(C(N)=O)CC1CCC23C` (centres undefined), the Kd was > 4 mM (inactive). For `Cc1cc(C(=O)N2CCC3(CC2)OCCO3)cs1`, the Kd was > 4 mM (inactive). For `CCOC(=O)c1c(C)cc(OC)cc1O`, the Kd was > 4 mM (inactive). With `COc1c2ccoc2nc2c(OC)c(OCC(O)C(C)(C)O)ccc12` (centres undefined) the Kd was > 4 mM (inactive). With `CC(C)(C)c1ccc(SCC(N)=O)cc1` the Kd was > 4 mM (inactive). With `C[C@@H]1[C@H]2[C@H](O[C@@H]3O[C@H](CO)[C@@H](O)[C@H](O)[C@H]3O)OC=C(C(=O)O)[C@H]2C[C@@H]1O` the Kd was > 4 mM (inactive). `COc1ccc2[nH]cc(CCNC(C)=O)c2c1` was tested, and the Kd was > 4 mM (inactive). With `Cc1cccc(NS(=O)(=O)c2cccs2)n1` the Kd was > 4 mM (inactive). For `COC(=O)c1cnccc1C(F)(F)F`, the Kd was > 4 mM (inactive). With `COc1ccccc1C(=O)NC1CCN(C)CC1` the Kd was > 4 mM (inactive). `Cn1nccc1N` was tested, and the Kd was > 4 mM (inactive). `O=C(O)C1CN2CCC1CC2` (centres undefined) was tested, and the Kd was > 4 mM (inactive). For `CC1(C)C(=O)N(O)C(C)(C)C(=O)N1O`, the Kd was > 4 mM (inactive). For `COCc1cc(Cl)nc(-c2csc(C)n2)n1`, the Kd was > 4 mM (inactive). For `Nc1cccc2nsnc12`, the Kd was > 4 mM (inactive). For `COc1cc([C@@H]2c3cc4c(cc3[C@H](O)[C@H]3COC(=O)[C@H]23)OCO4)cc(OC)c1OC`, the Kd was > 4 mM (inactive). With `O=C(NCc1ccccc1Br)c1ccco1` the Kd was > 4 mM (inactive). `OCc1csc(-c2ccccc2)n1` was tested, and the Kd was > 4 mM (inactive). In the case of `CCOC(=O)c1cc(C)n(-n2cnnc2)c1C`, the Kd is reported as > 4 mM (inactive). For `COc1cc(/C=C2\SC(=S)NC2=O)ccc1O`, the Kd was > 4 mM (inactive). With `O=C(O)Cn1cc(C(F)(F)F)ccc1=O` the Kd was > 4 mM (inactive). In the case of `Cc1occc1C(=O)Nc1nccs1`, the Kd is reported as > 4 mM (inactive). In the case of `CCc1cc2c(SCC(=O)O)ncnc2s1`, the Kd is reported as > 4 mM (inactive). In the case of `Cc1cc(NC(=O)c2cccc(N3C(=O)CCC3=O)c2)no1`, the Kd is reported as > 4 mM (inactive). In the case of `CC(=O)c1cc(CN2C(=O)c3ccccc3C2=O)cs1`, the Kd is reported as > 4 mM (inactive). With `CN1CN/C(=N\[N+](=O)[O-])N(c2ccccc2)C1` the Kd was > 4 mM (inactive). `COC(=O)CCC(C)C1CCC2C3CCC4C[C@H](O)CC[C@]4(C)C3C[C@H](O)[C@]12C` (some centres undefined) was tested, and the Kd was > 4 mM (inactive). For `O=C(NCCO)c1cc2ccccc2c(=O)s1`, the Kd was > 4 mM (inactive). With `O=C(O)CCCCC1SCC2NC(=O)NC21` (centres undefined) the Kd was > 4 mM (inactive). For `O=C(O)c1cncc(-c2ccccc2)c1`, the Kd was > 4 mM (inactive). `O=C1N/C(=N\c2ccccn2)SC1Cc1ccccc1` (centres undefined) was tested, and the Kd was > 4 mM (inactive). `Cc1[nH]c2ccccc2c1C=Nn1cncn1` was tested, and the Kd was > 4 mM (inactive). `NC(=O)CNC(=O)c1ccc2ccccc2n1` was tested, and the Kd was > 4 mM (inactive). `CCC(C)C(=O)O[C@@H]1C[C@@]2(C)[C@H](c3ccoc3)OC(=O)CC23OC2(C)O[C@]14[C@]1(C)[C@@H](CC(=O)OC)C5(C)CC1(O)[C@](O)(C5OC(=O)C1(C)OC1C)[C@@H](OC(C)=O)[C@]34O2` (some centres undefined) was tested, and the Kd was > 4 mM (inactive). With `Cc1ccc(/C=N/n2c(C)nnc2C)cc1` the Kd was > 4 mM (inactive). For `CC1SC(=NC(=O)c2ccncc2)NC1=O` (centres undefined), the Kd was > 4 mM (inactive). `Cc1scc(C(=O)Nc2ccon2)c1-c1ccccc1` was tested, and the Kd was > 4 mM (inactive). `CCc1sc(C(=O)NC)cc1Br` was tested, and the Kd was > 4 mM (inactive). `Nc1cccc(S(=O)(=O)N2CCOCC2)c1` was tested, and the Kd was > 4 mM (inactive). In the case of `O=C(Nc1ccncc1)Nc1ccc(F)cc1F`, the Kd is reported as > 4 mM (inactive). In the case of `COc1cc(CNC(=O)CCCC/C=C/C(C)C)ccc1O`, the Kd is reported as > 4 mM (inactive). With `O=C(NC1=NCCS1)c1csc2ccccc12` the Kd was > 4 mM (inactive). `O=C(Nc1ccccn1)C(=O)N1CCCC1` was tested, and the Kd was > 4 mM (inactive). In the case of `O=C(NCC1CCNCC1)c1ccncc1`, the Kd is reported as > 4 mM (inactive). For `COC(=O)C1Cc2ccccc2N1` (centres undefined), the Kd was > 4 mM (inactive).

Source: PubChem BioAssay AID1033 (Sanford-Burnham Center for Chemical Genomics, 2008)
